{"source": "patent US12364213B2", "about": "“Container for growth of cryo-sprouts” (RÄ FOODS HOLDINGS LLC, priority 2015, dated 2025)", "key": {"Salmonella spp.": {"system": "Salmonella spp.", "assay": "Salmonella spp. cocktail challenge on sprouts grown from soaked seeds (MPN and direct plating)", "assay_type": "cell-based", "procedure": "(§1) Isolates used to inoculate cryo-sprouts were grown in pure culture and quantitated in order to determine dilutions required to achieve a target level when inoculated into the product.\n(§2) The study encompassed three treatments exposed to two different temperatures over the course of 28 days, with weekly pulls, see Table 1 below.\n(§3) Initial counts were determined immediately after inoculation for each treatment on Day 0, and again after incubation at 40° F. for 21 days, and 50° F. for 12 days. Subsequent pulls occurred on a weekly basis from Day 0 (after the 21 days at 40° F. or after 12 days at 50° F.) through Day 28.\n(§4) The pulls occurred on Shelf Life Day 0, 7, 14, 21, and 28.\n(§5) One milliliter from each of the five Salmonella cultures was combined to form a cocktail. The Listeria monocytogenes and E. coli O157:H7 cultures were similarly combined to form a second and third cocktail. These three cocktails were diluted and added to the trays containing 60 ml of deionized water.\n(§6) Plastic trays with membrane were filled with 35 grams of soaked sprout seeds representing each of the three treatment groups.\n(§7) Sixty milliliters of deionized water was added to each tray along with a final concentration of approximately 1.0 E+3-1.0 E+4 cfu/ml of each of the three cocktails (Salmonella and Listeria together in one set, and E. coli O157:H7 into another set).\nSalmonella samples were serially diluted and spread plated on a Tryptic Soy Agar (TSA) basal layer and capped with XLD, incubated at 95° F. (35° C.) for 2 days. An MPN (Most probable number), consisting of a combination of the three samples, was also set up on each pull day due to the high number of other organisms present in the samples which obscured the direct counts."}, "L. monocytogenes": {"system": "L. monocytogenes", "assay": "L. monocytogenes cocktail challenge on sprouts grown from soaked seeds (MPN and direct plating)", "assay_type": "cell-based, Listeria monocytogenes", "procedure": "as §1, §2, §3, §4, §5, §6, §7\nListeria samples were serially diluted and plated on a TSA basal layer and capped with Modified Oxford Medium (MOX), incubated at 95° F. (35° C.) for 2 days. An MPN, consisting of a combination of the three samples, was also set up on each pull day due to the high number of other organisms present in the samples which obscured the direct counts."}, "[1]": {"conditions": "grown 12 days at 50° F., held at 40° F."}, "[2]": {"conditions": "grown 12 days at 50° F., Shelf Life Day 0"}, "[3]": {"conditions": "grown 12 days at 50° F., Shelf Life Day 7 at 40° F."}, "[4]": {"conditions": "grown 12 days at 50° F., Shelf Life Day 14 at 40° F."}, "[5]": {"conditions": "grown 12 days at 50° F., Shelf Life Day 21 at 40° F."}, "[6]": {"conditions": "grown 12 days at 50° F., Shelf Life Day 28 at 40° F."}, "[7]": {"conditions": "grown 21 days at 40° F., Shelf Life Day 0 at 40° F."}, "[8]": {"conditions": "grown 21 days at 40° F., Shelf Life Day 7 at 40° F."}, "[9]": {"conditions": "grown 21 days at 40° F., Shelf Life Day 14 at 40° F."}, "[10]": {"conditions": "grown 21 days at 40° F., Shelf Life Day 21 at 40° F."}, "[11]": {"conditions": "grown 21 days at 40° F., Shelf Life Day 28 at 40° F."}}}
{"smiles": "CC(=O)O", "note": "[Acetic Acid, acetic acid]", "values": [{"measurement": "Salmonella spp. counts at each pull date via MPN and plating methods", "setting": "Salmonella spp.; [1]", "value": "1.4-3 logs"}, {"measurement": "Log10 (Salmonella MPN/g) or (CFU)", "setting": "Salmonella spp.; [2]", "value": 3.04, "unit": "Log10 MPN/g"}, {"measurement": "Salmonella (MPN/g) or (CFU)", "setting": "Salmonella spp.; [2]", "value": "1,100 MPN/g"}, {"measurement": "Log10 (Salmonella MPN/g) or (CFU)", "setting": "Salmonella spp.; [3]", "value": 2.63, "unit": "Log10 MPN/g"}, {"measurement": "Salmonella (MPN/g) or (CFU)", "setting": "Salmonella spp.; [3]", "value": 430, "unit": "MPN/g"}, {"measurement": "Log10 (Salmonella MPN/g) or (CFU)", "setting": "Salmonella spp.; [4]", "value": 2.46, "unit": "Log10 MPN/g"}, {"measurement": "Salmonella (MPN/g) or (CFU)", "setting": "Salmonella spp.; [4]", "value": 290, "unit": "MPN/g"}, {"measurement": "Log10 (Salmonella MPN/g) or (CFU)", "setting": "Salmonella spp.; [5]", "value": 2.04, "unit": "Log10 MPN/g"}, {"measurement": "Salmonella (MPN/g) or (CFU)", "setting": "Salmonella spp.; [5]", "value": 110, "unit": "MPN/g"}, {"measurement": "Log10 (Salmonella MPN/g) or (CFU)", "setting": "Salmonella spp.; [6]", "value": 1.63, "unit": "Log10 MPN/g"}, {"measurement": "Salmonella (MPN/g) or (CFU)", "setting": "Salmonella spp.; [6]", "value": 43, "unit": "MPN/g"}, {"measurement": "Salmonella spp. overall log reduction", "setting": "Salmonella spp.; grown 21 days at 40° F., held at 40° F. through Shelf Life Day 28, from Day 0 to below detectable limit", "value": 3.87, "unit": "logs"}, {"measurement": "Salmonella spp. level, direct plating", "setting": "Salmonella spp.; grown 21 days at 40° F., held at 40° F., end of study, below detectable limit", "value": "< 10", "unit": "cfu/g"}, {"measurement": "Log10 (Salmonella MPN/g) or (CFU)", "setting": "Salmonella spp.; [7]", "value": 2.18, "unit": "Log10 MPN/g"}, {"measurement": "Salmonella (MPN/g) or (CFU)", "setting": "Salmonella spp.; [7]", "value": 150, "unit": "MPN/g"}, {"measurement": "Log10 (Salmonella MPN/g) or (CFU)", "setting": "Salmonella spp.; [8]", "value": 0.96, "unit": "Log10 MPN/g"}, {"measurement": "Salmonella (MPN/g) or (CFU)", "setting": "Salmonella spp.; [8]", "value": 9.2, "unit": "MPN/g"}, {"measurement": "Log10 (Salmonella MPN/g) or (CFU)", "setting": "Salmonella spp.; [9]", "value": "<−0.5", "unit": "Log10 MPN/g"}, {"measurement": "Salmonella (MPN/g) or (CFU)", "setting": "Salmonella spp.; [9]", "value": "<0.3", "unit": "MPN/g"}, {"measurement": "Log10 (Salmonella MPN/g) or (CFU)", "setting": "Salmonella spp.; [10]", "value": "<−0.5", "unit": "Log10 MPN/g"}, {"measurement": "Salmonella (MPN/g) or (CFU)", "setting": "Salmonella spp.; [10]", "value": "<0.3", "unit": "MPN/g"}, {"measurement": "Log10 (Salmonella MPN/g) or (CFU)", "setting": "Salmonella spp.; [11]", "value": "<−0.5", "unit": "Log10 MPN/g"}, {"measurement": "Salmonella (MPN/g) or (CFU)", "setting": "Salmonella spp.; [11]", "value": "< 0.3", "unit": "MPN/g"}, {"measurement": "Salmonella (MPN/g) or (CFU)", "setting": "Salmonella spp.; grown 21 days at 40° F., Shelf Life Day 28 at 40° F., listed as Acetic", "value": "<0.3", "unit": "MPN/g"}, {"measurement": "L. monocytogenes increase through Shelf Life Day 21", "setting": "L. monocytogenes; [1]", "value": "approximately 2.5 logs"}, {"measurement": "L. monocytogenes (MPN/g) or (CFU)", "setting": "L. monocytogenes; [2]", "value": "> 1,100 MPN/g"}, {"measurement": "Log10 (L. monocytogenes MPN/g) or (CFU)", "setting": "L. monocytogenes; [2]", "value": 3.04, "unit": "Log10 MPN/g"}, {"measurement": "L. monocytogenes (MPN/g) or (CFU)", "setting": "L. monocytogenes; [3]", "value": "24,000 MPN/g"}, {"measurement": "Log10 (L. monocytogenes MPN/g) or (CFU)", "setting": "L. monocytogenes; [3]", "value": 4.38, "unit": "Log10 MPN/g"}, {"measurement": "L. monocytogenes (MPN/g) or (CFU)", "setting": "L. monocytogenes; [4]", "value": "> 110,000 MPN/g"}, {"measurement": "Log10 (L. monocytogenes MPN/g) or (CFU)", "setting": "L. monocytogenes; [4]", "value": 5.04, "unit": "Log10 MPN/g"}, {"measurement": "L. monocytogenes average, direct plating", "setting": "L. monocytogenes; grown 12 days at 50° F., Shelf Life Day 21", "value": "2.1 E+5 cfu/g"}, {"measurement": "L. monocytogenes (MPN/g) or (CFU)", "setting": "L. monocytogenes; [5]", "value": "2.4 E+5 MPN/g"}, {"measurement": "Log10 (L. monocytogenes MPN/g) or (CFU)", "setting": "L. monocytogenes; [5]", "value": 5.38, "unit": "Log10 MPN/g"}, {"measurement": "L. monocytogenes (MPN/g) or (CFU)", "setting": "L. monocytogenes; grown 12 days at 50° F., Shelf Life Day 21 at 40° F., listed as Acetic", "value": "240,000 MPN/g"}, {"measurement": "L. monocytogenes log increase, direct plating method", "setting": "L. monocytogenes; grown 12 days at 50° F., Shelf Life Day 28", "value": 5.14, "unit": "logs"}, {"measurement": "L. monocytogenes overall log increase, MPN method", "setting": "L. monocytogenes; grown 12 days at 50° F., Shelf Life Day 28, from inoculated controls", "value": 1.82, "unit": "logs"}, {"measurement": "L. monocytogenes direct counts, avg. log value", "setting": "L. monocytogenes; grown 12 days at 50° F., Shelf Life Day 28, obscured by background flora, possible overestimation", "value": 7.95}, {"measurement": "L. monocytogenes (MPN/g) or (CFU)", "setting": "L. monocytogenes; [6]", "value": "43,000 MPN/g"}, {"measurement": "Log10 (L. monocytogenes MPN/g) or (CFU)", "setting": "L. monocytogenes; [6]", "value": 4.63, "unit": "Log10 MPN/g"}, {"measurement": "L. monocytogenes (MPN/g) or (CFU)", "setting": "L. monocytogenes; [7]", "value": 230, "unit": "MPN/g"}, {"measurement": "Log10 (L. monocytogenes MPN/g) or (CFU)", "setting": "L. monocytogenes; [7]", "value": 2.36, "unit": "Log10 MPN/g"}, {"measurement": "L. monocytogenes (MPN/g) or (CFU)", "setting": "L. monocytogenes; [8]", "value": 4.3, "unit": "MPN/g"}]}
